Measurements from article PMC3465084 (Journal of medicinal chemistry, 2012).

Legend:
J774 murine macrophages = test: CD36 Macrophage Receptor Binding Competition Assay; details: competition with OxLDL binding
CD36 scavenger receptor = test: Competition for binding of CuOxLDL to the CD36 scavenger receptor; details: Figure S1, Supporting Information
mAb E06 = test: Binding of mAb E06 to compound 9; details: Figure S2, Supporting Information
[1] = Stability in aqueous solution; assay type: physicochemical
Water solubility = assay type: physicochemical
macrophages = details: at the concentrations used, even at room temperature for up to 72 hours; cell number or protein content, time course studies of cell function (data not shown)

Compound: CCCCCCCCCCCCCCCC(=O)OC[C@H](COP(=O)([O-])OCC[N+](C)(C)C)OC(=O)CCCCN(C)CCCC[C@H](NC(=O)[C@@H](NC(=O)CNC(=O)[C@@H](NC(C)=O)[C@@H](C)O)[C@@H](C)O)C(=O)NCC(=O)NCC(=O)O [Compound 9, (4S,10S,13S,25R)-13-((2-((carboxymethyl)amino)-2-oxoethyl)carbamoyl)-4,10-bis((R)-1-hydroxyethyl)-18-methyl-2,5,8,11,23-pentaoxo-25-((palmitoyloxy)methyl)-24-oxa-3,6,9,12,18-pentaazahexacosan-26-yl-(2-(trimethylammonio)-ethyl) phosphate]
- binding to macrophage scavenger receptors (in words) (J774 murine macrophages): binds to macrophage scavenger receptors
- competition for the binding of CuOxLDL to the CD36 scavenger receptor (in words) (CD36 scavenger receptor): competes with high affinity
- binding of mAb E06 (in words) (mAb E06): specifically binds
- stability in aqueous solution (in words) [1]: stable
- water solubility (in words) (Water solubility): water soluble
- impact on viability of macrophages (macrophages): no impact
